# Patent publication US20230146455A1, “TREATMENT OF INFLAMMATORY DISEASES WITH PEPTIDES AND PHARMACEUTICAL COMPOSITIONS” (Yuyu Pharma, Inc., priority 2020, published 2023)
# Values joined by “and” are separate entries in the source; they are usually repeats but may differ in a detail not shown here. Equal entries are not always repeated. Where a SMILES comes first, the peptide text is derived from it. [ ]: non-standard residue; d: D form. Hyp = O=C(O)[C@@H]1C[C@@H](O)CN1
# System: human PBMCs
# Assay: PBMC cell counts (total, live, viability; trypan blue, Countess) with and without LPS and test articles (Example 9)
# Format: cell-based
# Experimental: Treatment Human PBMCs were pretreated with YY-101, YDE-011 and YDE-043 or reference compound; Xiidra® at various concentration (ranging from 1 nM to 100 uM) for 2 h before stimulation. An equal volume of 0.5% DMSO was used as a vehicle control. Then, the cells were treated with LPS at 5 ug/ml. The supernatants from treated cells were harvested at 24 h and placed in a 96 well for Luminex cytokine & chemokine profiling using a Luminex 200 multiplex assay (Luminex; R&D system, USA).
# The main study arm with triplicate wells per group in a 24-well plate: • 1. Blank • 2. PBMC: 0.5% DMSO • 3. PBMC+LPS (5 ug/ml) • 4. PBMC+YY-101 100 uM • 5. PBMC+YY-101 10 uM • 6. PBMC+YY-101 1 uM • 7. PBMC+YY-101 0.1 uM • 8. PBMC+YY-101 0.01 uM • 9. PBMC+LPS (5 ug/ml)+Xiidra®100 uM • 10. PBMC+LPS (5 ug/ml)+Xiidra® 10 uM • 11. PBMC+LPS (5 ug/ml)+Xiidra® 1 uM • 12. PBMC+LPS (5 ug/ml)+Xiidra®0.1 uM • 13. PBMC+LPS (5 ug/ml)+Xiidra®0.01 uM • 14. PBMC+LPS (5 ug/ml)+Xiidra®0.001 uM • 15. PBMC+LPS (5 ug/ml)+YY-101 100 uM • 16. PBMC+LPS (5 ug/ml)+YY-101 10 uM • 17. PBMC+LPS (5 ug/ml)+YY-101 1 uM • 18. PBMC+LPS (5 ug/ml)+YY-101 0.1 uM • 19. PBMC+LPS (5 ug/ml)+YY-101 0.01 uM • 20. PBMC+LPS (5 ug/ml)+YY-101 0.001 uM • 21. PBMC+LPS (5 ug/ml)+YDE-011 100 uM • 22. PBMC+LPS (5 ug/ml)+YDE-011 10 uM • 23. PBMC+LPS (5 ug/ml)+YDE-011 1 uM • 24. PBMC+LPS (5 ug/ml)+YDE-011 0.1 uM • 25. PBMC+LPS (5 ug/ml)+YDE-011 0.01 uM • 26. PBMC+LPS (5 ug/ml)+YDE-011 0.001 uM • 27. PBMC+LPS (5 ug/ml)+YDE-043 100 uM • 28. PBMC+LPS (5 ug/ml)+YDE-043 10 uM • 29. PBMC+LPS (5 ug/ml)+YDE-043 1 uM • 30. PBMC+LPS (5 ug/ml)+YDE-043 0.1 uM • 31. PBMC+LPS (5 ug/ml)+YDE-043 0.01 uM • 32. PBMC+LPS (5 ug/ml)+YDE-043 0.001 uM
# The number of PBMCs was measured after 24 hr of treatment. The culture both and trypan blue were diluted 1:1 and 10 ul was added to Countess cell counting chamber (Thermo fisher, USA). The number of PBMCs was measured using a Countess automated cell counter (Thermo fisher, USA).
# [1] = PBMC + LPS(5 ug/ml) + compound 0.001 uM, 24 hr
# [2] = PBMC + LPS(5 ug/ml) + compound 0.01 uM, 24 hr
# [3] = PBMC + LPS(5 ug/ml) + compound 0.1 uM, 24 hr
# [4] = PBMC + LPS(5 ug/ml) + compound 1 uM, 24 hr
# [5] = PBMC + LPS(5 ug/ml) + compound 10 uM, 24 hr
# [6] = PBMC + LPS(5 ug/ml) + compound 100 uM, 24 hr
# [7] = PBMC + LPS(5 ug/ml) + test article 0.001 uM, Mean
# [8] = PBMC + LPS(5 ug/ml) + test article 0.001 uM, single replicates
# [9] = PBMC + LPS(5 ug/ml) + test article 0.01 uM, Mean
# [10] = PBMC + LPS(5 ug/ml) + test article 0.01 uM, single replicates
# [11] = PBMC + LPS(5 ug/ml) + test article 0.1 uM, Mean
# [12] = PBMC + LPS(5 ug/ml) + test article 0.1 uM, single replicates
# [13] = PBMC + LPS(5 ug/ml) + test article 1 uM, Mean
# [14] = PBMC + LPS(5 ug/ml) + test article 1 uM, single replicates
# [15] = PBMC + LPS(5 ug/ml) + test article 10 uM, Mean
# [16] = PBMC + LPS(5 ug/ml) + test article 10 uM, single replicates
compound,measurement,setting,value
CC(C)C[C@H](NC(=O)[C@H](CCC(N)=O)NC(=O)CNC(=O)[C@@H]1C[C@@H](O)CN1)C(=O)NCC(=O)O [YDE-043] (H-[Hyp]GQLG-OH; N-terminus and C-terminus assumed),Live cell,[1],5.0 ± 0.5 10^5/ml
same,Total cell,[1],6.3 ± 0.7 10^5/ml
same,Live cell,[2],5.4 ± 0.6 10^5/ml
same,Total cell,[2],6.9 ± 0.4 10^5/ml
same,Live cell,[3],5.4 ± 0.2 10^5/ml
same,Total cell,[3],6.6 ± 0.1 10^5/ml
same,Live cell,[4],5.3 ± 0.3 10^5/ml
same,Total cell,[4],6.8 ± 0.6 10^5/ml
same,Live cell,[5],5.4 ± 0.1 10^5/ml
same,Total cell,[5],6.4 ± 0.1 10^5/ml
same,Live cell,[6],6.3 ± 0.1 10^5/ml
same,Total cell,[6],7.6 ± 0.6 10^5/ml
same,Live cell,[7],5.0 10^5/ml
same,Live cell (10^5/ml),[7],5.0 10^5/ml
same,"Live cell, Mean",[7],5.0 10^5/ml
same,Live cell,"PBMC + LPS(5 ug/ml) + test article 0.001 uM, individual replicates",4.4 10^5/ml and 6.0 10^5/ml and 4.6 10^5/ml
same,Live cell,"PBMC + LPS(5 ug/ml) + test article 0.001 uM, individual replicates (1st, 2nd, 3rd)",4.4 10^5/ml and 6.0 10^5/ml and 4.6 10^5/ml
same,Live cell,[8],4.4 10^5/ml and 6.0 10^5/ml and 4.6 10^5/ml
same,Live cell (10^5/ml),[8],4.4 10^5/ml and 6.0 10^5/ml and 4.6 10^5/ml
same,Live cell,"PBMC + LPS(5 ug/ml) + test article 0.001 uM, single replicates (1st, 2nd, 3rd)",4.4 10^5/ml and 6.0 10^5/ml and 4.6 10^5/ml
same,Live cell,[9],5.4 10^5/ml
same,Live cell (10^5/ml),[9],5.4 10^5/ml
same,"Live cell, Mean",[9],5.4 10^5/ml
same,Live cell,"PBMC + LPS(5 ug/ml) + test article 0.01 uM, individual replicates",4.5 10^5/ml and 6.6 10^5/ml and 5.0 10^5/ml
same,Live cell,"PBMC + LPS(5 ug/ml) + test article 0.01 uM, individual replicates (1st, 2nd, 3rd)",4.5 10^5/ml and 6.6 10^5/ml and 5.0 10^5/ml
same,Live cell,[10],4.5 10^5/ml and 6.6 10^5/ml and 5.0 10^5/ml
same,Live cell (10^5/ml),[10],4.5 10^5/ml and 6.6 10^5/ml and 5.0 10^5/ml
same,Live cell,"PBMC + LPS(5 ug/ml) + test article 0.01 uM, single replicates (1st, 2nd, 3rd)",4.5 10^5/ml and 6.6 10^5/ml and 5.0 10^5/ml
same,Live cell,[11],5.4 10^5/ml
same,Live cell (10^5/ml),[11],5.4 10^5/ml
same,"Live cell, Mean",[11],5.4 10^5/ml
same,Live cell,"PBMC + LPS(5 ug/ml) + test article 0.1 uM, individual replicates",5.0 10^5/ml and 5.6 10^5/ml (2×)
same,Live cell,"PBMC + LPS(5 ug/ml) + test article 0.1 uM, individual replicates (1st, 2nd, 3rd)",5.0 10^5/ml and 5.6 10^5/ml (2×)
same,Live cell,[12],5.0 10^5/ml and 5.6 10^5/ml (2×)
same,Live cell (10^5/ml),[12],5.0 10^5/ml and 5.6 10^5/ml (2×)
same,Live cell,"PBMC + LPS(5 ug/ml) + test article 0.1 uM, single replicates (1st, 2nd, 3rd)",5.0 10^5/ml and 5.6 10^5/ml (2×)
same,Live cell,[13],5.3 10^5/ml
same,Live cell (10^5/ml),[13],5.3 10^5/ml
same,"Live cell, Mean",[13],5.3 10^5/ml
same,Live cell,"PBMC + LPS(5 ug/ml) + test article 1 uM, individual replicates",5.8 10^5/ml and 4.8 10^5/ml and 5.3 10^5/ml
same,Live cell,"PBMC + LPS(5 ug/ml) + test article 1 uM, individual replicates (1st, 2nd, 3rd)",5.8 10^5/ml and 4.8 10^5/ml and 5.3 10^5/ml
same,Live cell,[14],5.8 10^5/ml and 4.8 10^5/ml and 5.3 10^5/ml
same,Live cell (10^5/ml),[14],5.8 10^5/ml and 4.8 10^5/ml and 5.3 10^5/ml
same,Live cell,"PBMC + LPS(5 ug/ml) + test article 1 uM, single replicates (1st, 2nd, 3rd)",5.8 10^5/ml and 4.8 10^5/ml and 5.3 10^5/ml
same,Live cell,[15],5.4 10^5/ml
same,Live cell (10^5/ml),[15],5.4 10^5/ml
same,"Live cell, Mean",[15],5.4 10^5/ml
same,Live cell,"PBMC + LPS(5 ug/ml) + test article 10 uM, individual replicates",5.2 10^5/ml and 5.4 10^5/ml and 5.6 10^5/ml
same,Live cell,"PBMC + LPS(5 ug/ml) + test article 10 uM, individual replicates (1st, 2nd, 3rd)",5.2 10^5/ml and 5.4 10^5/ml and 5.6 10^5/ml
same,Live cell,[16],5.2 10^5/ml and 5.4 10^5/ml and 5.6 10^5/ml
same,Live cell (10^5/ml),[16],5.2 10^5/ml and 5.4 10^5/ml and 5.6 10^5/ml
